Assay results reported in US7115641B2, “Antimicrobial oxazolidine/iodopropynyl-butyl carbamate composition containing less than 0.1wt% free formaldehyde” (ISP Investments Inc., priority 2003, dated 2006).

Columns and labels:
Type in all cases: cell-based
Alternaria alternata = assay: MIC and synergy on Malt Agar; settings: 28° C., 10–12 days
Procedure: (§1) One hundred μl of the bacterial suspensions were added to TSB broth containing each biocide or biocide mixture to a final concentration of approximately 10^6 CFU/ml. The inoculated broth was then incubated at 32° C. for 2–3 days. For fungi MIC, 10 μl of the fungi suspensions were pipetted to the solidified Malt agar containing various concentrations of each biocide or the biocide mixture. Final concentration about 10^5 spores/ml. Plates were incubated for 10–12 days at 28° C.
(§2) The lowest concentration of each compound or mixture to inhibit visible growth at 32° C. after 2–3 days for bacteria and at 28° after 10–12 days for fungi were taken as the Minimal Inhibitory Concentration (MIC). The MIC was taken as endpoints of activity. End points for the mixture of HMBO and IPBC where then compared with the end points for the pure active compound when employed individually.
(§3) Synergism was determined by a commonly used method described by Kull, A. C., Eisman, P. C, Sylwestrowicz, H., D. and Mayer, R. L. (1961). Applied Microbiology, 9:538 using the ratio determined by: Qa/QA+Qb/QB=Synergy Index (SI).
(§4) Wherein: QA is the concentration of HMBO in parts per million (ppm), acting alone, which produced and end point. Qa is the concentration of HMBO in ppm, in the mixture, which produced and end point. QB is the concentration of IPBC in ppm, acting alone, which produced an end point and Qb is the concentraton of IPBC in ppm, in the mixture, which produced an end point.
(§5) When the sum of Qa/QA+Qb/QB is greater than one, antagonism is indicated. When the sum is equal to one, additivity is indicated.

[1] = test system: Aspergillus niger (ATCC 6275); assay: MIC and synergy on Malt Agar; settings: 28° C., 10–12 days
Procedure: as §1, §2, §3, §4, §5

[2] = test system: mixed culture of Pseudomonas aeruginosa, Enterobacter cloacae, Bacillus subtilis, B. megaterium, B. licheniformis, Aspergillus niger and Penicillium …; assay: Latex paint in-can preservation, ASTM D2574-94, mixed inoculum; design: key: 0: no growth; 4: heavy growth
Procedure: The efficacy of each individual compound or their combination was measured in a latex paint artificially contaminated with a mixed inoculum. The microbiological evaluations shown as examples, are based on ASTM D2574–94, “Resistance of emulsion paints in the container to the attack of microorganisms”. Briefly, paint samples (e.g. Polyvinyl Acrylic, PCL 717) were prepared to contain different concentrations of each compound or their mixtures in different concentrations and ratios. Each paint sample thus prepared was then inoculated with a mixed culture of Pseudomonas aeruginosa, Enterobacter cloacae, Bacillus subtilis, B. megaterium, B. licheniformis, Aspergillus niger and Penicillium funiculosum (final concentration of about 10^6 CFU/ml) and re-challenged after 7 days (final concentration of about 10^7 CFU/ml). Paint samples were incubated at 32° C. for the duration of the test and sampled for the presence of viable bacteria on TSA and M plates. Growth was rated on a scale from “0” (no growth) to “4” (heavy growth). A paint sample was considered appropriately preserved if no bacterial growth (“0” rating) was detected after six days incubation in both challenge assays.
The table summarizes the results obtained when mixtures of the low formaldehyde hydroxymethyl oxazolidine (HMBO) (compound A) and IPBC (compound B) in PEG-400 were tested.

[3] = test system: Bacillus subtilis (ATCC 27328); assay: MIC and synergy in Tryptic Soy Broth; settings: TSB, 32° C., 2–3 days
Procedure: as §1, §2, §3
Wherein: QA is the concentration of HMBO in parts per million (ppm), acting alone, which produced and end point. Qa is the concentration of HMBO in ppm, in the mixture, which produced and end point. […]

Which results are given for `CCCCNC(=O)OCC#CI` [compound B, iodopropynyl butyl carbamate]?
Minimal Inhibitory Concentration (MIC), acting alone (Alternaria alternata): 0.50 ppm; Minimal Inhibitory Concentration (MIC), acting alone [1]: 0.25 ppm; Growth rating MALT Plates CI 1 ([2]; B alone 60 ppm): 0; Growth rating MALT Plates CI 2 ([2]; B alone 60 ppm): 1; Growth rating MALT Plates CI 3 ([2]; B alone 60 ppm): 0; Growth rating MALT Plates CI 6 ([2]; B alone 60 ppm): 0; Growth rating MALT Plates CII 1 ([2]; B alone 60 ppm): 4; Growth rating MALT Plates CII 2 ([2]; B alone 60 ppm): 4; Growth rating MALT Plates CII 3 ([2]; B alone 60 ppm): 4; Growth rating MALT Plates CII 6 ([2]; B alone 60 ppm): 4; Growth rating TSA plates CI 1 ([2]; B alone 60 ppm): 0; Growth rating TSA plates CI 2 ([2]; B alone 60 ppm): 0; Growth rating TSA plates CI 3 ([2]; B alone 60 ppm): 1; Growth rating TSA plates CI 6 ([2]; B alone 60 ppm): 0; Growth rating TSA plates CII 1 ([2]; B alone 60 ppm): 4; Growth rating TSA plates CII 2 ([2]; B alone 60 ppm): 4; Growth rating TSA plates CII 3 ([2]; B alone 60 ppm): 4; Growth rating TSA plates CII 6 ([2]; B alone 60 ppm): 3; Growth rating MALT Plates CI 1 ([2]; B alone 120 ppm): 4; Growth rating MALT Plates CI 2 ([2]; B alone 120 ppm): 4; Growth rating MALT Plates CI 3 ([2]; B alone 120 ppm): 2; Growth rating MALT Plates CI 6 ([2]; B alone 120 ppm): 0; Growth rating MALT Plates CII 1 ([2]; B alone 120 ppm): 4; Growth rating MALT Plates CII 2 ([2]; B alone 120 ppm): 4; Growth rating MALT Plates CII 3 ([2]; B alone 120 ppm): 4; Growth rating MALT Plates CII 6 ([2]; B alone 120 ppm): 4; Growth rating TSA plates CI 1 ([2]; B alone 120 ppm): 4; Growth rating TSA plates CI 2 ([2]; B alone 120 ppm): 2; Growth rating TSA plates CI 3 ([2]; B alone 120 ppm): 0; Growth rating TSA plates CI 6 ([2]; B alone 120 ppm): 0; Growth rating TSA plates CII 1 ([2]; B alone 120 ppm): 4; Growth rating TSA plates CII 2 ([2]; B alone 120 ppm): 3; Growth rating TSA plates CII 3 ([2]; B alone 120 ppm): 3; Growth rating TSA plates CII 6 ([2]; B alone 120 ppm): 3; Growth rating MALT Plates CI 1 ([2]; B alone 200 ppm): 4; Growth rating MALT Plates CI 2 ([2]; B alone 200 ppm): 2; Growth rating MALT Plates CI 3 ([2]; B alone 200 ppm): 1; Growth rating MALT Plates CI 6 ([2]; B alone 200 ppm): 0; Growth rating MALT Plates CII 1 ([2]; B alone 200 ppm): 4; Growth rating MALT Plates CII 2 ([2]; B alone 200 ppm): 4; Growth rating MALT Plates CII 3 ([2]; B alone 200 ppm): 4; Growth rating MALT Plates CII 6 ([2]; B alone 200 ppm): 4; Growth rating TSA plates CI 1 ([2]; B alone 200 ppm): 4; Growth rating TSA plates CI 2 ([2]; B alone 200 ppm): 2; Growth rating TSA plates CI 3 ([2]; B alone 200 ppm): 0; Growth rating TSA plates CI 6 ([2]; B alone 200 ppm): 0; Growth rating TSA plates CII 1 ([2]; B alone 200 ppm): 4; Growth rating TSA plates CII 2 ([2]; B alone 200 ppm): 3; Growth rating TSA plates CII 3 ([2]; B alone 200 ppm): 3; Growth rating TSA plates CII 6 ([2]; B alone 200 ppm): 3; Minimal Inhibitory Concentration (MIC), acting alone [3]: 62.5 ppm

With `OCC12COCN1COC2` [compound A, hydroxymethyl bicyclic oxazolidine] as the compound, how does the “Minimal Inhibitory Concentration (MIC), acting alone” value (from here on “Minimal Inhibitory Concentration”) (Alternaria alternata) read?
Its value is 250 ppm.

What about the “Minimal Inhibitory Concentration” value [1] of the same compound?
Its value is 1,000 ppm.

What about the “Growth rating MALT Plates CI 1” value ([2]; A alone 500 ppm) of the same compound?
Its value is 0.

And the “Growth rating MALT Plates CI 2” value ([2]; A alone 500 ppm)?
Its value is 0.

And the “Growth rating MALT Plates CI 3” value ([2]; A alone 500 ppm)?
Its value is 0.

What about the “Growth rating MALT Plates CI 6” value ([2]; A alone 500 ppm) of the same compound?
Its value is 0.

And the “Growth rating MALT Plates CII 1” value ([2]; A alone 500 ppm)?
The value was 0.

What about the “Growth rating MALT Plates CII 2” value ([2]; A alone 500 ppm) of the same compound?
The value was 0.

What about the “Growth rating MALT Plates CII 3” value ([2]; A alone 500 ppm) of the same compound?
The value was 0.

What about the “Growth rating MALT Plates CII 6” value ([2]; A alone 500 ppm) of the same compound?
The value was 0.

What about the “Growth rating TSA plates CI 1” value ([2]; A alone 500 ppm) of the same compound?
The value was 0.

And the “Growth rating TSA plates CI 2” value ([2]; A alone 500 ppm)?
The value was 0.

What about the “Growth rating TSA plates CI 3” value ([2]; A alone 500 ppm) of the same compound?
Its value is 0.

What about the “Growth rating TSA plates CI 6” value ([2]; A alone 500 ppm) of the same compound?
The value was 0.

And the “Growth rating TSA plates CII 1” value ([2]; A alone 500 ppm)?
Its value is 1.

What about the “Growth rating TSA plates CII 2” value ([2]; A alone 500 ppm) of the same compound?
The value was 1.

And the “Growth rating TSA plates CII 3” value ([2]; A alone 500 ppm)?
The value was 1.

And the “Growth rating TSA plates CII 6” value ([2]; A alone 500 ppm)?
Its value is 1.

And the “Growth rating MALT Plates CI 1” value ([2]; A alone 520 ppm)?
Its value is 0.

What about the “Growth rating MALT Plates CI 2” value ([2]; A alone 520 ppm) of the same compound?
Its value is 0.

What about the “Growth rating MALT Plates CI 3” value ([2]; A alone 520 ppm) of the same compound?
Its value is 0.

And the “Growth rating MALT Plates CI 6” value ([2]; A alone 520 ppm)?
The value was 0.

What about the “Growth rating MALT Plates CII 1” value ([2]; A alone 520 ppm) of the same compound?
The value was 0.

And the “Growth rating MALT Plates CII 2” value ([2]; A alone 520 ppm)?
Its value is 1.

And the “Growth rating MALT Plates CII 3” value ([2]; A alone 520 ppm)?
Its value is 1.

What about the “Growth rating MALT Plates CII 6” value ([2]; A alone 520 ppm) of the same compound?
The value was 0.

What about the “Growth rating TSA plates CI 1” value ([2]; A alone 520 ppm) of the same compound?
The value was 0.

And the “Growth rating TSA plates CI 2” value ([2]; A alone 520 ppm)?
The value was 0.

And the “Growth rating TSA plates CI 3” value ([2]; A alone 520 ppm)?
The value was 0.

And the “Growth rating TSA plates CI 6” value ([2]; A alone 520 ppm)?
Its value is 0.

What about the “Growth rating TSA plates CII 1” value ([2]; A alone 520 ppm) of the same compound?
The value was 0.

And the “Growth rating TSA plates CII 2” value ([2]; A alone 520 ppm)?
The value was 0.

What about the “Growth rating TSA plates CII 3” value ([2]; A alone 520 ppm) of the same compound?
The value was 1.

And the “Growth rating TSA plates CII 6” value ([2]; A alone 520 ppm)?
The value was 0.

And the “Minimal Inhibitory Concentration” value [3]?
Its value is 250 ppm.
